Source: patent US20200369618A1, “ASYMMETRIC DERIVATIVES OF P[…] THE DIN[…], PROCESS OF PREPARING AND USE THEREOF” (NEARMEDIC INTERNATIONAL LIMITED, priority 2017, published 2020)
Values after ≈ are worked out from the molar mass of the structure shown.

How the values were obtained:
[1] = Assessment of cytotoxic properties (MTS assay, 48 h); assay type: cell-based; details: dog, MDCK ECAAC cells, read-out: CC50 (toxic dose of the drug, causing the death of 50% of the monolayer cells)
Method: Assessment of cytotoxic properties of asymmetric gossypol derivatives.
In 96-well flat-bottomed test plates, MDCK ECAAC (Sigma cat. ? 85011435) cells are placed at 18,000 cells per well in a volume of 100 μl of complete medium containing 10% fetal calf serum (FCS). Cells are cultured for 24 hours in CO2-incubator at 37° C. Then the liquid medium is removed from the wells of the test plates, leaving the immobilized living cells. Then wells are once washed with the 100 μl of serumless media. The medium is replaced with 100 μl per well of the dilutions of test compounds in support medium with 2% of serum, in 4 replicates. Each plate is prepared with 6 control wells containing 100 μl of fresh support medium without test compounds. The plates are incubated in CO2-incubator at 37° C. for 48 hours. Then liquid contents are removed from the wells, and 100 μl of support medium and 20 μl of MTS (Promega, cat. ? G3581) are added and mixed. The cells are incubated for 3 hours in CO2-incubator at 37° C., and the relative optical density of the solution in each well is measured with a plate spectrophotometer at 492 nm against its absorption at a reference wavelength of 620 nm. The cytotoxicity (CC50) is calculated using the standard method.

[2] = test system: influenza virus A/Puerto Rico/8/34 (H1N1); experiment: organism not typed; assay type: cell-based; details: for SI (selectivity index, SI=CC50/IC50): CC50 in MDCK cells / IC50 against influenza A/Puerto Rico/8/34 (H1N1); for IC50: MDCK cells, influenza A/Puerto Rico/8/34 (H1N1), 48 hours, read-out: IC50 (compound concentration, at which 50% of virus titer is inhibited)

CC1=C(C2=C(C)C(=O)c3c(c(C=O)c(O)c(O)c3C(C)C)C2=O)C(=O)c2cc(O)c(O)c(C(C)C)c2C1=O [II, 6,6′,7,7′-tetrahydroxy-5,5′-diisopropyl-3,3′-dimethyl-1,1′,4,4′-tetraoxo-1,1′,4,4′-tetrahydro-2,2′-binaphthalene-8-carbaldehyde]
CC50 at 48 h [1]: 3.8 µg/mL (≈ 7.33 µM)
SI (selectivity index, SI=CC50/IC50) [2]: 4,75
IC50 [2]: 0.8 µg/mL (≈ 1.54 µM)

Cc1cc2c(C(C)C)c(O)c(O)cc2c(O)c1-c1c(C)cc2c(C(C)C)c(O)c(O)c(C=O)c2c1O (racemic) [I, 1,1′,6,6′,7,7′-hexahydroxy-5,5′-diisopropyl-3,3′-dimethyl-2,2′-binaphthalene-8-carbaldehyde]
CC50 at 48 h [1]: 5.5 µg/mL (≈ 11.2 µM)
SI (selectivity index, SI=CC50/IC50) [2]: 29,36
IC50 [2]: 0.2 µg/mL (≈ 0.408 µM)

Cc1cc2c(C(C)C)c(O)c(O)c(C=O)c2c(O)c1-c1c(C)cc2c(C(C)C)c(O)c(O)c(C=O)c2c1O [Gossypol, gossypol, reference compound]
CC50 at 48 h [1]: 4 µg/mL (≈ 7.71 µM)
SI (selectivity index, SI=CC50/IC50) [2]: 3,24
IC50 [2]: 1.2 µg/mL (≈ 2.31 µM)
